Experimental data reported in patent publication US20260347330A1, “N-METHYL-D-ASPARTATE RECEPTOR (NMDAR) ANTAGONISTS AND USES THEREOF” (Bexson Biomedical, Inc., priority 2022, published 2026).
Read-outs that look alike come from different tables or passages of the source.

Experiments:
hSERT = molecular target: T1, hSERT (Homo sapiens, UniProt P31645); test: SERT [3H]-citalopram competition radioligand binding, hSERT expressing HEK293 cell membranes
T1 construct: no vendor name is printed for this cell line) RBHSTM-K; host or cells: HEK293
T1 sequence (P31645 whole entry): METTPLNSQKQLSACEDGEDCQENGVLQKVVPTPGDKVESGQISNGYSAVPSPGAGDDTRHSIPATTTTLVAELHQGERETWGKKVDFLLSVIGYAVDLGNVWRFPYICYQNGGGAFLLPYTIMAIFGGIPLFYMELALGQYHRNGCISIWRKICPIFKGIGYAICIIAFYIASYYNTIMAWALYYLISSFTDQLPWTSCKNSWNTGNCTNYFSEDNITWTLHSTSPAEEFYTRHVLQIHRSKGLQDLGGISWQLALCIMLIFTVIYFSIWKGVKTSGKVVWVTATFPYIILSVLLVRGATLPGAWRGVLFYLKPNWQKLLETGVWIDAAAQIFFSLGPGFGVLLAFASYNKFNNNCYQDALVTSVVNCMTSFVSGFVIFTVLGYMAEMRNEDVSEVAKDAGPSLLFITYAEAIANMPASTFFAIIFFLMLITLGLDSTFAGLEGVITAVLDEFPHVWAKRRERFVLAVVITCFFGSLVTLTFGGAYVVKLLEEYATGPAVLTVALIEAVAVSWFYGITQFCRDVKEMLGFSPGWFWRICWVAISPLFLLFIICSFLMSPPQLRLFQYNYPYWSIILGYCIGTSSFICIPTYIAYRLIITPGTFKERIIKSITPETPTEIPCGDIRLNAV
Experimental: Valiscreen Serotonin Transporter (SERT) (Human) Cell Line (HEK293 host cells, Product No: RBHSTM-K) grown in DMEM/F12 media with 10% FBS, 0.1 mg/ml Geneticin, 1% GlutaMAX, and 1% Penicillin-Streptomycin added were used to prepare SERT membrane fractions. Cells were grown in 150 mm dishes and harvested between 70-90% confluency, passages 5-20. Cells were detached using a buffer containing 1 mM HEPES and 2 mM EDTA (pH 7.4). After detachment, the cells were homogenized using a handheld homogenizer, and the lysate was centrifuged (30 minutes at 30,000×G) at 4 ° C The resulting pellet was resuspended in storage buffer containing 20 mM HEPES, 10 mM MgCl2, 0.1 mM EDTA, and 10% sucrose at pH 7.4. Protein concentration was determined via the Bradford method using Coomassie protein assay reagent (Sigma, USA) with Bovine Serum albumin (Sigma, USA) as standard.
Buffer containing 10 mM HEPES, 120 mM NaCl, and 5 mM KCl (pH 7.4) was added to SERT membranes to dilute to a final protein concentration of 5 µg/mL per well. Additionally, 0.5 nM [3H]-Citalopram (Perkin Elmer NET1039250UC) was added, along with unlabeled competitors at various concentrations or […] citalopram for nonspecific binding controls, bringing the total volume to 1 ml in a 96 well plate. SERT membranes were always added last to each well. The plates were covered from light with aluminum foil and incubated at ambient temperature ([…]) and placed on a mechanical shaker (250RPM) for 2 h. After 2 h, SERT protein was captured via vacuum filtration using a Unifilter-96 Cell Harvester (Perkin Elmer) over presoaked UniFilter-96 GF/C P Microplates (Perkin Elmer) and filters were washed with room temperature 10 mM HEPES, 120 mM NaCl, and 5 mM KCl buffer (pH 7.4) (3×1 mL). The filter plates were dried overnight in a fume hood. The next day, the SERT bound tritium was measured via liquid scintillation counting with MicroScint-O (Perkin Elmer), using a MicroBeta2 Plate Reader with 6-detectors scintillation counter (Perkin Elmer) at 55% efficiency. IC50 value estimates were determined in GraphPad Prism 9.3.1 using non-linear regression (single site fit) with log-concentration plotted against percent specific binding. […] For each experiments compounds were run in duplicate. N=1-3 repeats per compound.

NMDAR = test: NMDA receptor [3H]-MK-801 competition radioligand binding in rat forebrain; conditions: [3H]-MK-801 1 nM competition, 1 mM glutamate, 0.1 mM glycine, pH 7.4, 2 h ambient, N = 1-4
Experimental: Rat forebrains from 7-8 week old Sprague-Dawley rats (BioChemed, USA) were homogenized in a buffer containing 10 mM HEPES and 1 mM EDTA (pH 7.4) using a mechanical homogenizer (Janke-Kunkel Ultra-Turrax T25). A 10 mL volume was used per brain for all steps involving suspension of the brain homogenate tissue. The brain homogenate was then centrifuged (15 minutes at 20,000 RPM and 4 ° C). The supernatant was carefully poured off and the pellet was resuspended in fresh 10 mM HEPES and 1 mM EDTA containing buffer. This process was repeated 5 times. Following the 5th centrifugation, the buffer was replaced with a buffer containing 10 mM HEPES (pH 7.4). The homogenate was then incubated in a water bath at 37 ° C in the dark (covered with foil). Centrifugation was then repeated 3 additional times and after resuspending in the HEPES buffer, the final homogenate was aliquoted and stored at −80 ° C until use. Protein concentration of the homogenate was determined by utilizing the Bradford method using Coomassie protein assay reagent (Sigma, USA) with Bovine Serum albumin (Sigma, USA) as a standard.
At the time of the experiment, the homogenate was diluted to a final concentration of […] in 10 mM HEPES buffer, 1 mM glutamate, and 0.1 mM glycine (pH 7.4) and combined with 1 nM (+)-[3H]-MK-801 (Perkin Elmer NET972250UC), unlabeled competitor compounds at varying concentrations, or 30 uM MK-801 to determine non-specific binding, in a total volume of 1 mL in a 96 well plate. The protein homogenate is always added to the wells last. The plates were covered with aluminum foil, and placed on a mechanical shaker (250 RPM) for 2 h at ambient temperature ([…]). After 2 h, the homogenate was collected by vacuum filtration using a Unifilter-96 Cell Harvester (Perkin Elmer) over presoaked UniFilter-96 GF/C P Microplates (Perkin Elmer) and filters were washed with room temperature 10 mM HEPES buffer (pH 7.4) (3×1 mL). The filter plates were dried overnight in a fume hood. The next day, the bound tritium was measured via liquid scintillation counting with […] MicroScint-O (Perkin Elmer) added per well, using a MicroBeta2 Plate Reader with 6-detectors scintillation counter (Perkin Elmer) at 55% efficiency. IC50 value estimates were determined in GraphPad Prism 9.3.1 using non-linear regression (single site fit) with log-concentration plotted against percent specific binding. Ki values were calculated using the equation of Cheng and Prusoff. […] Experiments were performed in duplicate. N=1-4 per compound.

[1] = molecular target: T2, human Dopamine Transporter (Homo sapiens, UniProt Q01959); test: Human dopamine reuptake transporter (DAT) inhibition functional study, ASP+ uptake in CHO cells; format: cell-based; conditions: at 10,000 nM, 10 μM ASP+, 1 h, CHO cells stably expressing human DAT
T2 construct: host or cells: CHO
T2 sequence (Q01959 whole entry): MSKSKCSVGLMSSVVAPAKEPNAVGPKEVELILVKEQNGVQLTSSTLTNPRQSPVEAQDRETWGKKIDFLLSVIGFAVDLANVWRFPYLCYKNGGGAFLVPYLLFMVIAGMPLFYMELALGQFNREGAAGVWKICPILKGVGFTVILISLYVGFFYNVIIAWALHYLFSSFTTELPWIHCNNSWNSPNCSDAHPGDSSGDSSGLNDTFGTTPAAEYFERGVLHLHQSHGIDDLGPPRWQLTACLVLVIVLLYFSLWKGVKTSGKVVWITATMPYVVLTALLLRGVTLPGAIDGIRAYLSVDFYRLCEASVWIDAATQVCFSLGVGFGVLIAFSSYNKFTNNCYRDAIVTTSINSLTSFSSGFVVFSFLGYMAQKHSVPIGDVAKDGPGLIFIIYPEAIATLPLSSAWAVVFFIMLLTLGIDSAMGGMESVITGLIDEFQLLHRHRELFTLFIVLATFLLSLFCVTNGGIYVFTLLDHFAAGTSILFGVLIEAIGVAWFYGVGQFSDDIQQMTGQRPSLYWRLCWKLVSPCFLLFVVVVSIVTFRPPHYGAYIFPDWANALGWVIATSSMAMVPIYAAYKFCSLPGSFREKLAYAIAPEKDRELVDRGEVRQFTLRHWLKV
Experimental: CHO cells stably expressing human Dopamine Transporter Protein (Valiscreen® Perkin Elmer RBHDATM-K) were cultured in 150 mm Tissue Culture dishes (Cell Treat 229651) at 37 ° C and 5% CO2. Ham's F-12 Nutrient Mix (Gibco, USA) was supplemented with 10% dialyzed FBS (Gibco, USA), 100 µg/ml Geneticin (Gibco, USA), and 100 units/ml Penicillin and Streptomycin (Gibco, USA) as the culture media. Cells were maintained on a consistent splitting and assay schedule and utilized until passage 30 (no change in control experiments were observed up to this point).
Cells were detached from their growth dishes using Trypsin-EDTA (0.25%) (Gibco, USA) at 70-80% confluency. The cells were counted and diluted in culture media to a density of 300,000 cells/mL. 200 µl of this mixture was added to each well of a clear bottom, black-walled 96 well plate (Coming 3603, USA). Plates were incubated in the laminar flow hood for one hour prior to being placed in the cell culture incubator in order to encourage even cell distribution across the entire well surface.
The next day, Krebs-Ringer HEPES (KRH) Buffer pH 7.4 was prepared (10 mM HEPES, 130 mM NaCl, 1.3 mM KCl, 2.2 mM CaCl2, 1.2 mM MgSO4, 1.2 mM KH2PO4) and titrated with 6N NaOH. This buffer was stored in a 4 ° C refrigerator for up to 4 days (after which it was discarded). Additionally, a solution containing KRH buffer and 330 µM Trypan Blue (Sigma T6146-25G), a solution of 20 mM ASP+(MedChem Express, NJ, USA) dissolved in DMSO, were both prepared. The 20 mM DMSO stock of ASP+ was diluted to a working concentration of 40 µM in KRH buffer. DMSO solutions of 40 mM GBR-12935 dihydrochloride (MedChem Express, NJ, USA) and 40 mM test compounds were also prepared. DMSO solutions of test compounds were then diluted to a range of […]-40 μM in KRH Buffer with 1% additional DMSO added to provide consistent DMSO concentration in all samples. […] The final DMSO concentration in each well was 0.3%. […] KRH buffer with DMSO “vehicle control” served as the total fluorescence control to represent the maximum amount of substrate uptake without DAT transporter inhibition.
At the time of assay, cell media was carefully removed from the wells via pipette aspiration. 100 μL of KRH buffer was then added to all wells. Both controls, non-specific and total fluorescence stock solutions were then added to the plate (50 µL of either 400 µM GBR-12935 or KRH DMSO buffer respectively). Additionally, GBR-12935 and test compounds were added to the plate ([…] for each sample). The 10,000 nM concentration of test compound was run in triplicate wells. Next, […] ASP+(final concentration of 10 μM) was added to each well initiating the experiment. Cells were placed in the cell culture incubator for one hour, at which point 20 µL of 330 µM Trypan Blue was added to each well to quench extracellular fluorescence. The cells were then placed in the microplate reader (BioTek Synergy Neo 2), using Gen5 Ver 3.11 software. The reader was preheated to 37 ° C and following a brief orbital shake, intracellular fluorescence was measured using a fluorescence intensity reading. Intracellular ASP+ was excited at 430 nm and emission read at 510 nm via a bottom read using the extended gain settings and high lamp energy setting.

[2] = 0.5 nM [3H]-citalopram competition, hSERT HEK293 membranes, pH 7.4, 2 h ambient, N = 1, read-out: SERT pKi (converted)

Compound	IC50 (hSERT) [µM]	NMDAR binding affinity pKi (mean ± SEM) (NMDAR)	inhibition at 10 µM [1] [%]	Ki (hSERT) [µM]	Ki (hSERT; [2]) [µM]
CC(N)(c1ccccc1)C1CC1 (centres unmarked) [Compound 2, 1-cyclopropyl-1-phenylethan-1-amine]	> 10	6.19 ± 0.162	–	–	–
CC(N)(c1ccccc1)C1CCCC1 (centres unmarked) [Compound 3, 1-cyclopentyl-1-phenylethan-1-amine]	> 10	7.11 ± 0.041	16.8	–	–
CCC(N)(c1ccccc1)C1CCCC1 (centres unmarked) [Compound 4, 1-cyclopentyl-1-phenylpropan-1-amine]	> 10	6.64 ± 0.101	24.3	–	–
NC(c1ccccc1)(C1CCCC1)C1CC1 (centres unmarked) [Compound 5, Cyclopentyl(cyclopropyl)(phenyl)methanamine]	> 10	6.23 ± 0.046	1.3	–	–
C=CCC(N)(c1ccccc1)C1CCCC1 (centres unmarked) [Compound 6, 1-cyclopentyl-1-phenylbut-3-en-1-amine]	–	5.89 ± 0.072	23.1	3.16	–
NC(c1ccccc1)(C1CCCC1)C1CCC1 (centres unmarked) [Compound 7, Cyclobutyl(cyclopentyl)(phenyl)methanamine]	–	5.63 ± 0.029	24.1	–	–
C=CCCC(N)(c1ccccc1)C1CCCC1 (centres unmarked) [Compound 8, 1-cyclopentyl-1-phenylpent-4-en-1-amine]	–	6.24 ± 0.444	3.1	–	–
NC(CC1CCC1)(c1ccccc1)C1CCCC1 (centres unmarked) [Compound 9, 2-cyclobutyl-1-cyclopentyl-1-phenylethan-1-amine]	> 10	5.80 ± 0.095	-4	–	–
CC(N)(c1ccccc1)C1CCCCC1 (centres unmarked) [Compound 11, 1-cyclohexyl-1-phenylethan-1-amine]	> 10	6.09 ± 0.120	11.7	–	–
CNC(C)(c1ccccc1)C1CCCC1 (centres unmarked) [Compound 15, 1-cyclopentyl-N-methyl-1-phenylethan-1-amine]	–	6.56 ± 0.064	18.2	0.501	–
CCNC(C)(c1ccccc1)C1CCCC1 (centres unmarked) [Compound 16, 1-cyclopentyl-N-ethyl-1-phenylethan-1-amine]	–	6.93 ± 0.073	16	–	1.12
CC(C)NC(C)(c1ccccc1)C1CCCC1 (centres unmarked) [Compound 19, N-(1-cyclopentyl-1-phenylethyl)propan-2-amine]	–	7.34 ± 0.041	39.2	–	0.151
CCC(C)NC(C)(c1ccccc1)C1CCCC1 (centres unmarked) [Compound 20, N-(1-cyclopentyl-1-phenylethyl)butan-2-amine]	–	7.35 ± 0.075	56.7	2.45	–
CC(NC1CCC1)(c1ccccc1)C1CCCC1 (centres unmarked) [Compound 21, N-(1-cyclopentyl-1-phenylethyl)cyclobutanamine]	–	8.06 ± 0.021	87.3	–	–
CC(c1ccccc1)(C1CCCC1)N1CCCCC1 (centres unmarked) [Compound 22, 1-(1-cyclopentyl-1-phenylethyl)piperidine]	–	6.08 ± .0633	–	–	0.479
CC(c1ccccc1)(C1CCCCC1)N1CCCCC1 (centres unmarked) [Compound 23, 1-(1-cyclohexyl-1-phenylethyl)piperidine]	–	5.52 ± .118	71.6	–	2.63
CC(C)C(C)(N)c1ccccc1 (centres unmarked) [Compound 25, 3-methyl-2-phenylbutan-2-amine]	–	5.86 ± 0.044	37.6	–	–
NC(c1ccccc1)C1CCCCC1 (centres unmarked) [Compound 28, Cyclohexyl(phenyl)methanamine]	–	4.97 ± 0.054	17.9	–	–
NC(c1ccccc1Cl)C1CCCC1 (centres unmarked) [Compound 29, (2-chlorophenyl)(cyclopentyl)methanamine]	> 10	5.47 ± 0.030	10.3	–	–
